# According to PubChem BioAssay AID256 (DTP/NCI, 2004):
# Several values for one entry are separate records, joined by “and”; a condition that tells them apart may be missing. Equal entries are not always repeated. Toxic doses and inconclusive results are not listed.
# System: CD2F1 mice, L1210 leukemia ip, survival T/C
# Assay: NCI In Vivo Anticancer Drug Screen. Data for tumor model L1210 Leukemia (intraperitoneal) in CD2F1 (CDF1) mice
# Conditions: higher = longer survival
# Procedure, shortened: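 Tumor-bearing mice (transplanted tumor) were split into treated and vehicle control groups, and the measured endpoint of each treated group was divided by that of its vehicle controls.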
# [1] = endpoint: mean survival time, dose: 100.0 mg/kg/injection, schedule: Q04DX003 (ip), vehicle: saline with Tween-80
# [2] = endpoint: mean survival time, dose: 200.0 mg/kg/injection, schedule: Q04DX003 (ip), vehicle: saline with Tween-80
# [3] = endpoint: mean survival time, dose: 400.0 mg/kg/injection, schedule: Q04DX003 (ip), vehicle: saline with Tween-80
# [4] = endpoint: mean survival time, dose: 100.0 mg/kg/injection, schedule: Q04DX003 (ip), vehicle: acetone
# [5] = endpoint: mean survival time, dose: 200.0 mg/kg/injection, schedule: Q04DX003 (ip), vehicle: acetone
# [6] = endpoint: mean survival time, dose: 400.0 mg/kg/injection, schedule: Q04DX003 (ip), vehicle: acetone
# [7] = endpoint: mean survival time, dose: 100.0 mg/kg/injection, schedule: Q01DX001 (ip), vehicle: saline with Tween-80
# [8] = endpoint: mean survival time, dose: 200.0 mg/kg/injection, schedule: Q01DX001 (ip), vehicle: saline with Tween-80
# [9] = endpoint: mean survival time, dose: 50.0 mg/kg/injection, schedule: Q01DX009 (ip), vehicle: saline with Tween-80
# [10] = endpoint: mean survival time, dose: 100.0 mg/kg/injection, schedule: Q01DX009 (ip), vehicle: saline with Tween-80
# [11] = endpoint: mean survival time, dose: 200.0 mg/kg/injection, schedule: Q01DX009 (ip), vehicle: saline with Tween-80
# [12] = endpoint: mean survival time, dose: 400.0 mg/kg/injection, schedule: Q01DX001 (ip), vehicle: saline with Tween-80
compound,measurement,setting,value
O=C1C(=O)c2ccccc2C(O)=C1CC1=C(O)c2ccccc2C(=O)C1=O,T/C,[1],103 % of control
same,T/C,[2],101 % of control
same,T/C,[3],106 % of control
CC(C)C/C=N/NC(=O)c1ccc[n+](C)c1,T/C,"endpoint: mean survival time, dose: 50.0 mg/kg/injection, schedule: Q01DX001 (ip), vehicle: saline",107 % of control
same,T/C,"endpoint: mean survival time, dose: 100.0 mg/kg/injection, schedule: Q01DX001 (ip), vehicle: saline",109 % of control
same,T/C,"endpoint: mean survival time, dose: 200.0 mg/kg/injection, schedule: Q01DX001 (ip), vehicle: saline",103 % of control
CCOC(=O)C12CCCCCC1CC(=O)CC2 (stereo unspecified),T/C,[4],96 % of control
same,T/C,[5],93 % of control
same,T/C,[6],86 % of control
CC(C)C(O)C(C)(C)c1nc2ccccc2[nH]1 (stereo unspecified),T/C,[7],100 % of control
same,T/C,[8],94 % of control
C1=CC2C3C=CC(C3)C2C1 (stereo unspecified),T/C,[9],94 % of control
same,T/C,[10],93 % of control
same,T/C,[11],98 % of control
COc1cc2c(cc1OC)C13CCN4CC5=CCOC(CC(=O)O)C(C5CC41)C3N2 (stereo unspecified),T/C,"endpoint: mean survival time, dose: 75.0 mg/kg/injection, schedule: Q01DX001 (ip), vehicle: other",98 % of control
same,T/C,"endpoint: mean survival time, dose: 75.0 mg/kg/injection, schedule: Q01DX001 (ip), vehicle: saline",101 % of control
same,T/C,"endpoint: mean survival time, dose: 150.0 mg/kg/injection, schedule: Q01DX001 (ip), vehicle: saline",97 % of control
N/C(=N/OCc1ccccc1)c1ncn(C2CCCC2)c1NC=O,T/C,"endpoint: mean survival time, dose: 100.0 mg/kg/injection, schedule: Q01DX001 (ip), vehicle: other",112 % of control
same,T/C,"endpoint: mean survival time, dose: 200.0 mg/kg/injection, schedule: Q01DX001 (ip), vehicle: other",104 % of control
same,T/C,"endpoint: mean survival time, dose: 400.0 mg/kg/injection, schedule: Q01DX001 (ip), vehicle: other",102 % of control
Nc1nc(N)c2nc(CNc3ccc(C(=O)NC(CCC(=O)O)C(=O)O)cc3)ccc2n1 (stereo unspecified),T/C,"endpoint: mean survival time, dose: 15.63 micrograms/kg/injection, schedule: Q01DX005 (ip), vehicle: sodium bicarbonate",118 % of control
same,T/C,"endpoint: mean survival time, dose: 31.25 micrograms/kg/injection, schedule: Q01DX005 (ip), vehicle: sodium bicarbonate",118 % of control
same,T/C,"endpoint: mean survival time, dose: 62.5 micrograms/kg/injection, schedule: Q01DX005 (ip), vehicle: sodium bicarbonate",120 % of control and 110 % of control
same,T/C,"endpoint: mean survival time, dose: 125.0 micrograms/kg/injection, schedule: Q01DX005 (ip), vehicle: sodium bicarbonate",113 % of control
Cn1c(=O)c2c(nc(NCCCO)n2C)n(C)c1=O,T/C,"endpoint: mean survival time, dose: 12.5 mg/kg/injection, schedule: Q01DX005 (ip), vehicle: distilled water + Tween-80",100 % of control
same,T/C,"endpoint: mean survival time, dose: 25.0 mg/kg/injection, schedule: Q01DX005 (ip), vehicle: distilled water + Tween-80",94 % of control
same,T/C,"endpoint: mean survival time, dose: 50.0 mg/kg/injection, schedule: Q01DX005 (ip), vehicle: distilled water + Tween-80",94 % of control
same,T/C,"endpoint: mean survival time, dose: 100.0 mg/kg/injection, schedule: Q01DX005 (ip), vehicle: distilled water + Tween-80",94 % of control
same,T/C,"endpoint: mean survival time, dose: 200.0 mg/kg/injection, schedule: Q01DX005 (ip), vehicle: distilled water + Tween-80",98 % of control
Cc1cc([N+](=O)[O-])c(Cl)cc1NS(=O)(=O)c1ccccc1,T/C,[9],103 % of control
same,T/C,[10],101 % of control
same,T/C,[11],94 % of control
COc1ccc(NC2=C(C)C(=O)C3=C(C2=O)[C@H](COC(N)=O)[C@]2(OC)[C@@H]4N[C@@H]4CN32)cc1,T/C,"endpoint: mean survival time, dose: 1.5 mg/kg/injection, schedule: Q01DX001 (ip), vehicle: water",107 % of control
same,T/C,"endpoint: mean survival time, dose: 3.0 mg/kg/injection, schedule: Q01DX001 (ip), vehicle: water",118 % of control and 110 % of control
same,T/C,"endpoint: mean survival time, dose: 6.0 mg/kg/injection, schedule: Q01DX001 (ip), vehicle: water",117 % of control and 111 % of control
same,T/C,"endpoint: mean survival time, dose: 12.0 mg/kg/injection, schedule: Q01DX001 (ip), vehicle: water",124 % of control
same,T/C,"endpoint: mean survival time, dose: 24.0 mg/kg/injection, schedule: Q01DX001 (ip), vehicle: water",153 % of control
same,T/C,"endpoint: mean survival time, dose: 48.0 mg/kg/injection, schedule: Q01DX001 (ip), vehicle: water",124 % of control
CC[N+](C)(CC)CCCOC(=O)c1ccccc1Oc1ccc(C)cc1,T/C,"endpoint: mean survival time, dose: 50.0 mg/kg/injection, schedule: Q01DX009 (ip), vehicle: saline",102 % of control
Cc1cc(C)c(C)c(S(=O)(=O)O)c1C,T/C,[9],102 % of control
same,T/C,[10],102 % of control
same,T/C,[1],101 % of control
same,T/C,[2],89 % of control
CCC12C[N+]3([O-])CCc4c([nH]c5ccccc45)C(C(=O)OC)(c4cc5c(cc4OC)N(C)C4C(O)(C(=O)OC)C(OC(C)=O)C6(CC)C=CCN7CCC54C76)CC(C3)C1O2 (stereo unspecified),T/C,"endpoint: median survival time, dose: 0.62 mg/kg/injection, schedule: Q01DX009 (ip), vehicle: water",98 % of control
same,T/C,"endpoint: median survival time, dose: 1.25 mg/kg/injection, schedule: Q01DX009 (ip), vehicle: water",103 % of control
same,T/C,"endpoint: median survival time, dose: 2.5 mg/kg/injection, schedule: Q01DX009 (ip), vehicle: water",98 % of control and 105 % of control and 107 % of control
same,T/C,"endpoint: median survival time, dose: 5.0 mg/kg/injection, schedule: Q01DX009 (ip), vehicle: water",101 % of control and 105 % of control and 110 % of control
same,T/C,"endpoint: median survival time, dose: 10.0 mg/kg/injection, schedule: Q01DX009 (ip), vehicle: water",115 % of control and 117 % of control
same,T/C,"endpoint: median survival time, dose: 20.0 mg/kg/injection, schedule: Q01DX009 (ip), vehicle: water",117 % of control and 119 % of control and 112 % of control
ClC(Cl)=[C](Cl)[Hg][C](Cl)=C(Cl)Cl,T/C,"endpoint: mean survival time, dose: 6.25 mg/kg/injection, schedule: Q01DX009 (ip), vehicle: saline with Tween-80",93 % of control
N#Cc1cccc(CN2CCCNCC2)c1,T/C,"endpoint: mean survival time, dose: 12.5 mg/kg/injection, schedule: Q01DX009 (ip), vehicle: water",98 % of control
same,T/C,"endpoint: mean survival time, dose: 25.0 mg/kg/injection, schedule: Q01DX009 (ip), vehicle: water",100 % of control
same,T/C,"endpoint: mean survival time, dose: 50.0 mg/kg/injection, schedule: Q01DX009 (ip), vehicle: water",96 % of control
same,T/C,"endpoint: mean survival time, dose: 100.0 mg/kg/injection, schedule: Q01DX009 (ip), vehicle: water",105 % of control
CCOP(=O)(NCc1ccco1)OCC,T/C,"endpoint: mean survival time, dose: 50.0 mg/kg/injection, schedule: Q01DX001 (ip), vehicle: carboxymethylcellulose (CMC)",106 % of control
same,T/C,"endpoint: mean survival time, dose: 100.0 mg/kg/injection, schedule: Q01DX001 (ip), vehicle: carboxymethylcellulose (CMC)",112 % of control
O=[N+]([O-])/C=C/c1cc2ccccc2[nH]1,T/C,[4],94 % of control
same,T/C,[5],94 % of control
same,T/C,[6],105 % of control
CCOC(=O)C(C#N)C1CNP(=O)(N(CCCl)CCCl)OC1 (stereo unspecified),T/C,"endpoint: mean survival time, dose: 31.25 mg/kg/injection, schedule: Q01DX001 (ip), vehicle: DMSO",98 % of control
same,T/C,"endpoint: mean survival time, dose: 62.5 mg/kg/injection, schedule: Q01DX001 (ip), vehicle: DMSO",98 % of control
same,T/C,"endpoint: mean survival time, dose: 125.0 mg/kg/injection, schedule: Q01DX001 (ip), vehicle: DMSO",100 % of control
same,T/C,"endpoint: mean survival time, dose: 250.0 mg/kg/injection, schedule: Q01DX001 (ip), vehicle: DMSO",100 % of control
same,T/C,"endpoint: mean survival time, dose: 500.0 mg/kg/injection, schedule: Q01DX001 (ip), vehicle: DMSO",112 % of control
same,T/C,"endpoint: mean survival time, dose: 1000.0 mg/kg/injection, schedule: Q01DX001 (ip), vehicle: DMSO",115 % of control
Nc1nc(=O)n(CCCOc2cccc(Cl)c2)cc1-c1ccc(Cl)c(Cl)c1,T/C,[7],96 % of control
same,T/C,[8],89 % of control
same,T/C,[12],91 % of control
COc1cccc(NC(=S)/C(=C(\[O-])c2ccc([N+](=O)[O-])cc2)[n+]2ccc(C(C)C)cc2)c1,T/C,[10],95 % of control
same,T/C,[11],93 % of control
CN(C)C(=O)Oc1cccc(NC(=O)Nc2cccc(OC(=O)N(C)C)c2)c1,T/C,[7],105 % of control
same,T/C,[8],98 % of control
same,T/C,[12],97 % of control
CCCSC(=O)Nc1cccc(OC(=O)NC)c1,T/C,[1],99 % of control
same,T/C,[2],94 % of control
same,T/C,[3],99 % of control
Cc1ccc(S(=O)(=O)n2nc(C3OC(CO)C(O)C3O)c(O)c2C(N)=O)cc1 (stereo unspecified),T/C,"endpoint: median survival time, dose: 44.6 mg/kg/injection, schedule: Q01DX005 (ip), vehicle: saline",120 % of control
same,T/C,"endpoint: median survival time, dose: 89.3 mg/kg/injection, schedule: Q01DX005 (ip), vehicle: saline",120 % of control
CC(CN=Cc1ccccc1[O-])N=Cc1ccccc1[O-].[O]=[V] (stereo unspecified),T/C,"endpoint: mean survival time, dose: 5.0 mg/kg/injection, schedule: Q04DX003 (ip), vehicle: saline with Tween-80",90 % of control
same,T/C,"endpoint: mean survival time, dose: 10.0 mg/kg/injection, schedule: Q04DX003 (ip), vehicle: saline with Tween-80",94 % of control
same,T/C,"endpoint: mean survival time, dose: 20.0 mg/kg/injection, schedule: Q04DX003 (ip), vehicle: saline with Tween-80",90 % of control
